Test results taken from patent US11013698B2, “Combinations of LSD1 inhibitors for the treatment of hematological malignancies” (Oryzon Genomics S.A., priority 2016, dated 2021).
Like-named read-outs stand apart in the source and are kept apart here.

How the values were obtained:
Test in all cases: Viability assay (96 hours), Alamar Blue
Assay type in all cases: cell-based
Settings in all cases: for Reduction of viability (compared to vehicle controls): serial 1:3 dilution; for EC50: Homo sapiens, read-out: EC50 (viability)
HL-60 = system: HL-60
Experimental: (§1) AML cell lines were maintained in RPMI 10% FBS medium at 37° C. in a humidified incubator with controlled 5% CO2 atmosphere. Cell freezing and thawing was performed following recommendation from ATCC. Genetic profiling of the cell lines used is available in table 2. Cells were seeded at the optimal density (to guarantee linear growth during the treatment), as previously determined (4000 cells/well, except 16000 cells/well in the case of KASUMI-1 cells), in 96-well plates with 50 μL of medium. Three wells were reserved for each experimental condition; medium-only and vehicle-treated controls were also added for background correction and normalization respectively. […] Alamar Blue® is a cell viability indicator that uses the natural reducing power of living cells to convert resazurin to the fluorescent molecule, resorufin^43.

KASUMI-1 = system: KASUMI-1
Experimental: as §1

MOLM-13 = system: MOLM-13
Experimental: as §1

MV(4;11) = system: MV(4;11)
Experimental: as §1

OCI-AML2 = system: OCI-AML2
Experimental: as §1

OCI-AML3 = system: OCI-AML3
Experimental: as §1

THP-1 = system: THP-1
Experimental: as §1

[1] = KASUMI-1, 96 hours, single agent
[2] = MOLM-13, 96 hours, single agent
[3] = MV4-11, MV(4;11), 96 hours, single agent
[4] = OCI-AML2, 96 hours, single agent
[5] = OCI-AML-3, OCI-AML3, 96 hours, single agent

Row | SMILES | Reduction of viability (compared to vehicle controls) (HL-60; HL-60, 96 hours) | Reduction of viability (compared to vehicle controls) (KASUMI-1; KASUMI-1, 96 hours) | Reduction of viability (compared to vehicle controls) (MOLM-13; MOLM-13, 96 hours) | Reduction of viability (compared to vehicle controls) (MV(4;11); MV(4;11), 96 hours) | Reduction of viability (compared to vehicle controls) (OCI-AML2; OCI-AML2, 96 hours) | Reduction of viability (compared to vehicle controls) (OCI-AML3; OCI-AML3, 96 hours) | Reduction of viability (compared to vehicle controls) (THP-1; THP-1, 96 hours) | EC50 (HL-60; HL-60, 96 hours, single agent) | EC50 (KASUMI-1; [1]) | EC50 (MOLM-13; [2]) | EC50 (MV(4;11); [3]) | EC50 (OCI-AML2; [4]) | EC50 (OCI-AML3; [5]) | EC50 (THP-1; THP-1, 96 hours, single agent) | other results
1 | O=C(CCCCCCNC(=O)c1cnc(N(c2ccccc2)c2ccccc2)nc1)NO [Rocilinostat, Ricolinostat] | greater than 20% | greater than 20% | greater than 20% | greater than 20% | greater than 20% | greater than 20% | greater than 20% | – | – | – | – | – | – | – | –
2 | Nc1ncn([C@@H]2O[C@H](CO)[C@@H](O)[C@H]2O)c(=O)n1 [Azacitidine] | greater than 20% | greater than 20% | greater than 20% | greater than 20% | greater than 20% | greater than 20% | greater than 20% | 1.81 µM | 2.28 µM | 0.323 µM | 1.11 µM | 1.85 µM | 0.889 µM | 2.88 µM | –
3 | CN(C)CC[C@H](CSc1ccccc1)Nc1ccc(S(=O)(=O)NC(=O)c2ccc(N3CCN(Cc4ccccc4-c4ccc(Cl)cc4)CC3)cc2)cc1[N+](=O)[O-] [ABT737, 4-[4-[[2-(4-chlorophenyl)phenyl]methyl]piperazin-1-yl]-N-[4-[[(2R)-4-(dimethylamino)-1-phenylsulfanylbutan-2-yl]amino]-3-nitrophenyl]sulfonylbenzamide] | greater than 20% | greater than 20% | greater than 20% | greater than 20% | greater than 20% | – | – | 0.113 µM | 0.124 µM | 0.025 µM | 0.0063 µM | 0.014 µM | – | – | –
4 | COc1ccc(C2=N[C@@H](c3ccc(Cl)cc3)[C@@H](c3ccc(Cl)cc3)N2C(=O)N2CCNC(=O)C2)c(OC(C)C)c1 [Nutlin3A, 4-[[(4S,5R)-4,5-bis(4-chlorophenyl)-4,5-dihydro-2-[4-methoxy-2-(1-methylethoxy)phenyl]-1H-imidazol-1-yl]carbonyl]-2-piperazinone] | – | – | greater than 20% | – | greater than 20% | greater than 20% | greater than 20% | – | – | 0.128 µM | – | 0.447 µM | 0.659 µM | 0.324 µM | –
5 | Nc1ncn([C@H]2C[C@H](O)[C@@H](CO)O2)c(=O)n1 [Decitabine, 5-aza-2′-deoxycytidine] | greater than 20% | greater than 20% | greater than 20% | greater than 20% | greater than 20% | greater than 20% | greater than 20% | – | – | – | – | – | – | – | EC50 (HL-60; HL-60, 96 h): 0.0421 µM; EC50 (KASUMI-1; Kasumi 1, 96 h): 0.024 µM; EC50 (MOLM-13; MOLM-13, 96 h): 0.0126 µM; EC50 (MV(4;11); MV4-11, 96 h): 0.0795 µM; EC50 (OCI-AML2; OCI-AML2, 96 h): 0.036 µM; EC50 (OCI-AML3; OCI-AML-3, 96 h): 0.101 µM; EC50 (THP-1; THP-1, 96 h): 0.095 µM
6 | CC1=C(/C=C/C(C)=C/C=C/C(C)=C/C(=O)O)C(C)(C)CCC1 [ATRA, all-trans retinoic acid] | greater than 20% | – | greater than 20% | greater than 20% | greater than 20% | greater than 20% | greater than 20% | 0.0027 µM | – | 0.0048 µM | 0.0028 µM | 0.0059 µM | 0.0008 µM | 0.0017 µM | –
7 | CC(C)N(C[C@H]1O[C@@H](n2cnc3c(N)ncnc32)[C@H](O)[C@@H]1O)[C@H]1C[C@@H](CCc2nc3cc(C(C)(C)C)ccc3[nH]2)C1 [EPZ5676, Pinometostat] | – | – | greater than 20% | greater than 20% | – | – | – | – | – | 0.0447 µM | 0.016 µM | – | – | – | –
8 | CC(C)N(CCCNC(=O)Nc1ccc(C(C)(C)C)cc1)C[C@H]1O[C@@H](n2ccc3c(N)ncnc32)[C@H](O)[C@@H]1O [EPZ004777, 7-[5-Deoxy-5-[[3-[[[[4-(1,1-dimethylethyl)phenyl]amino]carbonyl]amino]propyl](1-methylethyl)amino]-β-D-ribofuranosyl]-7H-pyrrolo[2,3-d]pyrimidin-4-amine] | – | – | greater than 20% | greater than 20% | – | – | – | – | – | 0.108 µM | 0.118 µM | – | – | – | –
9 | O=C(CCCCCCC(=O)Nc1ccccc1)NO [SAHA, suberanilohydroxamic acid] | greater than 20% | greater than 20% | greater than 20% | greater than 20% | greater than 20% | greater than 20% | greater than 20% | – | – | – | – | – | – | – | –
10 | Nc1ccn([C@@H]2O[C@H](CO)[C@@H](O)[C@@H]2O)c(=O)n1 [ARA-C, arabinofuranosyl cytidine] | greater than 20% | greater than 20% | greater than 20% | greater than 20% | greater than 20% | greater than 20% | greater than 20% | 0.0435 µM | 0.0287 µM | 0.0785 µM | 0.198 µM | 0.0265 µM | 0.145 µM | 0.252 µM | –
11 | CC(C)(C)c1cc(NC(=O)Nc2ccc(-c3cn4c(n3)sc3cc(OCCN5CCOCC5)ccc34)cc2)no1 [Quizartinib] | – | – | greater than 20% | greater than 20% | greater than 20% | – | – | – | – | < 0.001 µM | < 0.001 µM | 0.83 µM | – | – | –
12 | Nc1ccccc1NC(=O)c1ccc(CNC(=O)OCc2cccnc2)cc1 [Entinostat] | greater than 20% | greater than 20% | greater than 20% | greater than 20% | greater than 20% | greater than 20% | greater than 20% | 0.042 µM | 0.168 µM | 0.052 µM | 0.0985 µM | 0.106 µM | 0.0552 µM | 0.23 µM | –
